# Measurements: ChEMBL document CHEMBL1201862, “PubChem BioAssay data set” (2004)
#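 Five concentrations, 48 hours, 96-well plates. The concentration for 50% growth inhibition is given as GI50.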 Calls of active or inactive are those of the source. Rule as the data show it: active = GI50 up to about 1.1 µM and inactive = higher.
# Tests used:
# Test in all cases: growth of human tumour cells (NCI), 48 h
# SNB-75 = test system: SNB-75
# RXF 393 = test system: RXF 393
# NCI/ADR-RES = test system: NCI/ADR-RES
# SF-268 = test system: SF-268
# NCI-H460 = test system: NCI-H460
# DMS-273 = test system: DMS-273
# A549 = test system: A549
# SNB-19 = test system: SNB-19
# SF-539 = test system: SF-539
# CCRF-CEM = test system: CCRF-CEM
# OVCAR-3 = test system: OVCAR-3
# NCI-H522 = test system: NCI-H522
# KM12 = test system: KM12
# HCT-15 = test system: HCT-15
# A498 = test system: A498
Compound,GI50 (SNB-75),GI50 (RXF 393),GI50 (NCI/ADR-RES),GI50 (SF-268),GI50 (NCI-H460),GI50 (DMS-273),GI50 (A549),GI50 (SNB-19),GI50 (SF-539),GI50 (CCRF-CEM),GI50 (OVCAR-3),GI50 (NCI-H522),GI50 (KM12),GI50 (HCT-15),GI50 (A498)
C=CCc1cccc(/C=N\N/C(N)=N/O)c1O,4.43 µM (inactive),2.99 µM (inactive),2.23 µM (inactive),3.03 µM (inactive),3.2 µM (inactive),3.05 µM (inactive),3.61 µM (inactive),11.5 µM (inactive),2.64 µM (inactive),2.07 µM (inactive),2.26 µM (inactive),3.23 µM (inactive),4.36 µM (inactive),2.19 µM,7.76 µM (inactive)
Oc1c(CNCCCN2CCCC2)cc(Cl)c2cccnc12,13 µM (inactive),11.5 µM (inactive),1.48 µM (inactive),3.27 µM (inactive),2.88 µM (inactive),2.83 µM (inactive),3.14 µM (inactive),6.46 µM (inactive),2.87 µM (inactive),2.34 µM (inactive),2.14 µM (inactive),4.22 µM (inactive),4.05 µM (inactive),2.09 µM,15 µM (inactive)
O=P1(c2ccccc2)Nc2ccccc2SSc2ccccc2N1,20.4 µM (inactive),19.4 µM (inactive),19.9 µM (inactive),17.5 µM (inactive),18.4 µM (inactive),17.4 µM (inactive),19.6 µM (inactive),16.3 µM (inactive),19.9 µM (inactive),12.1 µM (inactive),15.1 µM (inactive),15.1 µM (inactive),16.7 µM (inactive),17 µM,20.4 µM (inactive)
CC(=O)OC1CC2(O)C(CCC3(C)C(c4ccc(=O)oc4)CCC32O)C2(C)C1=CC(O)C1OC12 (stereo not given),0.0624 µM (active),0.0331 µM (active),0.0378 µM (active),0.0295 µM (active),0.0279 µM (active),0.04 µM (active),0.028 µM (active),0.118 µM (active),0.0375 µM (active),0.0267 µM (active),0.0316 µM (active),0.025 µM (active),0.067 µM (active),0.053 µM,0.113 µM (active)
CN(C)CCNC(=O)c1cc(Cl)cc2ccc(-c3ccccc3)nc12,1.86 µM (inactive),3.86 µM (inactive),2.51 µM (inactive),4.57 µM (inactive),2 µM (inactive),2.3 µM (inactive),2.87 µM (inactive),5.04 µM (inactive),3.09 µM (inactive),1.49 µM (inactive),3.74 µM (inactive),5.37 µM (inactive),4.84 µM (inactive),2.85 µM,5.48 µM (inactive)
